US20160235717A1, “BENDAMUSTINE PHARMACEUTICAL COMPOSITIONS” (LUITPOLD PHARMACEUTICALS, INC., priority 2013, published 2016)
Values after ≈ are worked out from the molar mass of the structure shown. Counter-ions that a name gives are not always drawn.

How the values were obtained:
[1] = cited from earlier work
[2] = Dissolution of bendamustine HCl in DMSO/water at 15° C. (Example 6); type: physicochemical
Protocol: 37.5 ml of water was placed in a glass beaker and mixing was initiated at about 350 rpm. 2.1266 g mannitol added and mixed for about 5 minutes. About 12.5 ml of DMSO was added and solution brought to about 15° C. 1.2672 g of bendamustine HCl added and mixed. A milky solution was the result.
The sample was not used for analysis purposes, however, 3 ml of DMSO was added and the sample was cloudy. Another 3 ml of DMSO was added and the solution started to clear up. The addition of DMSO corresponds to about 35% DMSO.

[3] = Water uptake of anhydrous Bendamustine HCl; type: physicochemical
Protocol: Bendamustine HCl was an anhydrous form with a water content level of nmt 1.0%. The Bendamustine HCl used herein was not the Form 1 polymorph and was at least similar to an anhydrous version of the Form 2 polymorph. A sample of Bendamustine HCl anhydrous (with a thickness of about 2 mm was is saturated in water after 60 minutes and the water level reached about 4.7-4.8%. Exposing the Bendamustine HCl to atmospheric conditions for 1 hour caused the % water to increase to about 4.5%, corresponding to the monohydrate form (MW Bendamustine HCl=394.7 g/mol and H2O=18 g/mol; [(394.7+18)/394.7]100=104.6%).

SMILES	solubility in DMSO ([1]; at 25° C., has been reported) [mg/mL]	solubility in water ([1]; at 25° C., has been reported) [mg/mL]	DMSO content optimal for dissolution ([2]; at 15° C., DMSO added to sample 6IB130709-1 until the solution started to clear up)	solubility limit in the preferred Treanda® formulation ([1]; at 5° C., disclosed in U.S. Pat. No. 8,436,190B2) [mg/mL]	solubility in 75% water ([2]; 25 mg/ml with mannitol 42.5 mg/ml in DMSO 25% v/v in water, about 15° C. (sample 6IB130709-1), a milky solution resulted)	water level when saturated in water ([3]; anhydrous sample, thickness about 2 mm, after 60 minutes)	% water after exposure to atmospheric conditions ([3]; exposure for 1 hour, corresponds to the monohydrate form)
Cn1c(CCCC(=O)O)nc2cc(N(CCCl)CCCl)ccc21 [bendamustine, 4-[5-[Bis(2-chloroethyl)amino]-1-methylbenzimidazol-2-yl]butanoic acid]	79 (≈ 221 mM)	15 (≈ 41.9 mM)	more than 35%				
Cn1c(CCCC(=O)O)nc2cc(N(CCCl)CCCl)ccc21 [Bendamustine HCl]				27	not found to be soluble	4.7-4.8%	about 4.5%
